Measured values reported in US12514938B2, “Fibroblast activation protein targeting peptides” (PERSPECTIVE THERAPEUTICS, INC., priority 2023, dated 2026).
*1 amine or outer side, *2 acyl side, *3 side chain or, on linkers, in order; H or OH if unused. Where a SMILES comes first, the peptide text is derived from it. Bridges are numbered along the chain shown (N, C = ends). The star is where a group is joined. X1 = NC(=O)CN1CCN(CC(=O)O)CCN(CC(=O)*)CCN(CC(=O)O)CC1; oXylylene = c1ccc(C[*:2])c(C[*:1])c1; PEG2 = NCCOCCOCCC(=O)O

Experiments:
human PREP = target: T1, human PREP (Homo sapiens, UniProt P48147); assay: Grating-coupled interferometry (GCI) binding kinetics
T1 sequence (P48147 1-710): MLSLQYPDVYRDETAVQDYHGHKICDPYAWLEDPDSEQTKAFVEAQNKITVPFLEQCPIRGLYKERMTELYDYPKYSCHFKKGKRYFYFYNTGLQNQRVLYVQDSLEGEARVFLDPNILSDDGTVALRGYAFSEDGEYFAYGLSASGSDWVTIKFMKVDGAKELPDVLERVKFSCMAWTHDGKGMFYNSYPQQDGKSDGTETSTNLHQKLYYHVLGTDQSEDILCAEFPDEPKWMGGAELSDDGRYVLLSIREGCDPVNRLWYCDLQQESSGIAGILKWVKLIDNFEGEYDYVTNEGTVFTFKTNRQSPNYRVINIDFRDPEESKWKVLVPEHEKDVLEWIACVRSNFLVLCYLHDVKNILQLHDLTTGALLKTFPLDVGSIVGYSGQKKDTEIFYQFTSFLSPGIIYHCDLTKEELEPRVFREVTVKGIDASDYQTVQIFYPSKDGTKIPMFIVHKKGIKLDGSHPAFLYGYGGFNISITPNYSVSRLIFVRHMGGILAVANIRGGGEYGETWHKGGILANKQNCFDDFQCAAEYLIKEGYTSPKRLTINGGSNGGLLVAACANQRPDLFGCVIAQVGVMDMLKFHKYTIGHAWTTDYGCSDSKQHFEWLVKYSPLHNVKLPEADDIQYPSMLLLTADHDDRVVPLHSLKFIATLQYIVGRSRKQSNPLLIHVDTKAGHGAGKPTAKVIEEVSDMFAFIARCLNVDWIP
Protocol: (§1) The enzyme inhibition assay was performed to determine inhibitor constant (i.e., Ki) values against human FAP, mouse FAP, human dipeptidyl peptidase 4 (DPPIV) and human prolyl endopeptidase (PREP). Z-GP-AMC was used as substrate for human FAP, mouse FAP and human PREP. GP-AMC was used as substrate for human DPPIV. To perform the assay, VMT-FAP-2-59 at varying concentrations (i.e. 10^−6 to 10^−12) were incubated with 5 ng hFAP, 5 ng mFAP, 2.5 ng DPPIV, or 5 ng PREP in a black 96-well plate for 10 minutes at RT on a shaker plate. The substrate was added to give a final concentration of 50 μM for Z-GP-AMC and GP-AMC. The total reaction volume per well was 100 μL The reaction was allowed to incubate at RT on a shaker plate for 1 hour protected from light, and then fluorescence was read with a BioTek Synergy LX plate reader at an ex/em (360/40 and 460/40). Experiments were performed in at least duplicate. Buffer only, buffer/enzymes, buffer/substrate and enzyme only were included as controls. Data was plotted in GraphPad Prism and non-linear regression used to calculate IC50 values. Binding kinetics (Kd) of VMT-FAP-2-59 against human FAP, human DPPIV and human PREP were also determined by grating-coupled interferometry (GCI). hFAP, hDPPIV and hPREP proteins were fixed on PCH (N=3) chips or PCP (N=2). […] On PCP chips, binding affinity of VMT-FAP-2-29 to hFAP was determined from 39 pM to 20 nM. Binding affinity to hDPPIV and hPREP was determined at concentration from 39 pM to 50 nM.

human DPPIV = human DPPIV (Homo sapiens, UniProt P27487); assay: as above
Sequence of human DPPIV (P27487 whole entry): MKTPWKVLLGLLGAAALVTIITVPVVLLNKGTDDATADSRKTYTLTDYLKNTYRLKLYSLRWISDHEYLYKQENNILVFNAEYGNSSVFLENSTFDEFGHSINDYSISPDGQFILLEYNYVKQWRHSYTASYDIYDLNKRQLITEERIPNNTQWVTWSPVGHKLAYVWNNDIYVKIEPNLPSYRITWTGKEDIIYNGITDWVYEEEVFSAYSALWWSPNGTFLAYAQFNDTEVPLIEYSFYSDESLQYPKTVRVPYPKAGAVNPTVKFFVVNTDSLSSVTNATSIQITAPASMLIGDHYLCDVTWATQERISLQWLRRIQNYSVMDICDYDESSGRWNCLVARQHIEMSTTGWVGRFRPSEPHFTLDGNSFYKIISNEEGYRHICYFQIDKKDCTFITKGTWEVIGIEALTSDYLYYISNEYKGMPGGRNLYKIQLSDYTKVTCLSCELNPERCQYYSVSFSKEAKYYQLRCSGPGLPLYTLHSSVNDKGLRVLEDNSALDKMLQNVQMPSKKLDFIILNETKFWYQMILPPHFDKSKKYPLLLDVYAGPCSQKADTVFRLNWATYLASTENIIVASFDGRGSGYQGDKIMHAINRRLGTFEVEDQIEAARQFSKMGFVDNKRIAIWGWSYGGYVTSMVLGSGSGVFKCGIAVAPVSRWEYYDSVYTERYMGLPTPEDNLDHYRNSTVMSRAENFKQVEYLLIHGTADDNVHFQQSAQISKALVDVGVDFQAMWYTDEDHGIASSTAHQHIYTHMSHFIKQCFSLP
Protocol: as §1

human FAP = target: T2, human FAP (Homo sapiens, UniProt Q12884); assay: as above; conditions: GCI on PCH/PCP chips
T2 sequence (Q12884 1-760): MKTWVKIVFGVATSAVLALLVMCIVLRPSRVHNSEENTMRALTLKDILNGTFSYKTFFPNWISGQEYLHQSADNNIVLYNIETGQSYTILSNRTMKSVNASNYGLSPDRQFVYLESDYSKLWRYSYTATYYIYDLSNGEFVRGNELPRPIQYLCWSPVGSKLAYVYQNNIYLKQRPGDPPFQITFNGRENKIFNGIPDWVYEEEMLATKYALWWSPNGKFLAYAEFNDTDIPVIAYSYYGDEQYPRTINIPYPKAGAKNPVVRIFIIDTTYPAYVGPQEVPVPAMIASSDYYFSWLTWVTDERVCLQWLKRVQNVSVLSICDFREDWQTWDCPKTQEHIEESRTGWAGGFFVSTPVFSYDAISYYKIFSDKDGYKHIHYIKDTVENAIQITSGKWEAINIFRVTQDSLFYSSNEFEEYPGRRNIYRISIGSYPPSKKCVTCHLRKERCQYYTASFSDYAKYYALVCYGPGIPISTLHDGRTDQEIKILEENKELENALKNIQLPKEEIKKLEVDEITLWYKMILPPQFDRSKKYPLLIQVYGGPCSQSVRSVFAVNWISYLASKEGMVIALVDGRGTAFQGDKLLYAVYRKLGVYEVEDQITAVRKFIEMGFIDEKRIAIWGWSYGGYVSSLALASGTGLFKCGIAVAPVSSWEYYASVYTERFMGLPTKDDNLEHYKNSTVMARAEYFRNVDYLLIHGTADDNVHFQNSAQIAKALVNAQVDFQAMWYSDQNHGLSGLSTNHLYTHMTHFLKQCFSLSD
Protocol: as §1

[1] = target: T3, Human Fibroblast Activation Protein (FAP) (Homo sapiens, UniProt Q12884); assay: Enzyme inhibition assay against human FAP (substrate Z-GP-AMC), Example 1; assay type: biochemical; conditions: human FAP 5 ng/well, 50 μM Z-GP-AMC; Ki from IC50 by Cheng-Prusoff
T3 sequence (Q12884 1-760): T2 sequence (Q12884 1-760)
In short: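 FAP (5 ng/well) preincubated 10 min at RT with peptide (10^−6 to 10^−12), then 50 μM Z-GP-AMC added for 1 h at RT, protected from light. Buffer 50 mM Tris-HCl, 1 M NaCl, 1 mg/mL BSA, pH 7.5; fluorescence at ex/em 360/460. IC50 from non-linear regression, converted to Ki via Cheng-Prusoff using known substrate Km.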

C[C@@H](O)[C@@H]1NC(=O)[C@@H](NC(=O)CCOCCOCCNC(=O)CN2CCN(CC(=O)O)CCN(CC(N)=O)CCN(CC(=O)O)CC2)CSCc2ccccc2CSC[C@@H](C(N)=O)NC(=O)[C@H](Cc2c[nH]c3ccccc23)NC(=O)[C@H](Cc2c[nH]c3ccccc23)NC(=O)[C@H](CCC(N)=O)NC(=O)[C@H](CCC(=O)O)NC(=O)[C@H](Cc2c[nH]c3ccccc23)NC(=O)[C@@H]2CCCN2C1=O [VMT-FAP-2-59, PSC-PEG2-[C(oXdB)TPWEQWWC]-NH2] ({X1-PEG2}-CTPWEQWWC-NH2; linker 1-9 via oXylylene)
Kd (human PREP): No binding
Kd (human DPPIV): No binding
Kd (human FAP): 2 nM
Ki [1]: 0.36 nM
